For 28 compounds, inhibition results are on record in ChEMBL document CHEMBL5518193, “Discovery of N-alkyl-N-benzyl thiazoles as novel TRPC antagonists for the treatment of glioblastoma multiforme” (Eur J Med Chem, 2024).

For this assay, the target named is T1, Short transient receptor potential channel 6 (Mus musculus) (UniProt Q61143).
T1 sequence (whole entry): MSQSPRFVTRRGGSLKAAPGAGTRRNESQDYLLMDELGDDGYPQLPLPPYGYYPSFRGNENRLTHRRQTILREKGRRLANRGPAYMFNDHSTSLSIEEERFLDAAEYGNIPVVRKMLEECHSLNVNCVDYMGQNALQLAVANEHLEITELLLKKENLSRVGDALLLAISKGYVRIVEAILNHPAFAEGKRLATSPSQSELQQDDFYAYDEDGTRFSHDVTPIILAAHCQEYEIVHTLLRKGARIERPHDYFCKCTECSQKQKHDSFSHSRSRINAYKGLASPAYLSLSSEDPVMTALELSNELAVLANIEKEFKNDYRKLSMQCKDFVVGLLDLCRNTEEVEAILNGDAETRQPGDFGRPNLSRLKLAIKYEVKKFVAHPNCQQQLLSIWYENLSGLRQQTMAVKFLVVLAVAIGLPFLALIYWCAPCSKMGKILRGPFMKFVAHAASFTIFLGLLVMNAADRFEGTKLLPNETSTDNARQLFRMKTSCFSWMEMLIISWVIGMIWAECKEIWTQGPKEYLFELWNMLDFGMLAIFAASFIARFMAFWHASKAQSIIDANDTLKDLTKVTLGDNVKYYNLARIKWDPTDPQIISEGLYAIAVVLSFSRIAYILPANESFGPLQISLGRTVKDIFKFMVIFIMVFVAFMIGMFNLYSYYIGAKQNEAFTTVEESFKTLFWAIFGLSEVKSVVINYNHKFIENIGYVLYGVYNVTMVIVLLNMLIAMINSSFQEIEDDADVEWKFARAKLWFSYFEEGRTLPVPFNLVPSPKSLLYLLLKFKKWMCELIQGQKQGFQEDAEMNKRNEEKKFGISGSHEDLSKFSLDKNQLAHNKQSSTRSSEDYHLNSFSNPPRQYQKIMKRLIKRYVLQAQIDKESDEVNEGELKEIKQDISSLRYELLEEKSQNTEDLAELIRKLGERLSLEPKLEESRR
The assay can be described thus: Antagonist activity at mouse TRPC6 stably expressed in HEK293 cells assessed as inhibition of calcium influx at 10 uM by calcium fluorescence assay relative to control. The format is cell-based.

As to `CCOC(=O)c1csc(N(CCN)Cc2ccc3cc(Br)ccc3c2)n1`, the inhibition (filed as antagonist) came to 56.8%. `CCOC(=O)c1csc(N(CCNC(=O)OC(C)(C)C)C(=O)c2ccc(C(F)(F)F)cc2)n1`: the inhibition worked out at 18.7%. On to `CCOC(=O)c1csc(N(CCN)Cc2ccc3ccccc3n2)n1`, for which the inhibition (filed as antagonist) turned out to be 56.6%. Still for that read-out and setting: then `CCOC(=O)c1csc(N(CCN)Cc2ccc(C(F)(F)F)cc2)n1`, with 84.6%; and `CCOC(=O)c1csc(N(CCN)Cc2cc(F)ccc2Br)n1`, with 59.5%. `NCCN(Cc1ccc2ccccc2c1)c1nc(C(=O)O)cs1`: the inhibition stood at 29%. On the same count and under the same terms, the figure for `NCCN(Cc1cccc(C(F)(F)F)c1)c1nc(C(=O)Nc2ncc[nH]2)cs1` is 18.5%; for `CCOC(=O)c1csc(N(CCNS(N)(=O)=O)Cc2ccc3ccccc3c2)n1` it is 0.8%. Still for that read-out and setting: then `NCCN(Cc1cccc(C(F)(F)F)c1)c1nc(C(=O)Nc2ccc(O)cc2)cs1`, with 10.8%.

As for `CCOC(=O)c1csc(N(CCN)Cc2cccc3ccccc23)n1`, the inhibition (filed as antagonist) turned out to be 77.6%. In the case of `CCOC(=O)c1csc(N(CCNC(=O)OC(C)(C)C)C(=O)c2ccc([N+](=O)[O-])cc2)n1`, the inhibition was 30.3%. The same measure, in the same setting: the figure for `NCCN(Cc1ccc2ccccc2c1)c1nc(C(=O)NC23CC4CC(CC(C4)C2)C3)cs1` is 35.6%; for `CCOC(=O)c1csc(NCCN)n1` it is 19.3%. Same read-out and setting: then `CCOC(=O)c1csc(N(CCN)Cc2ccc(OC(F)F)cc2)n1`, with 26.1%. Turning to `CCOC(=O)c1csc(N(CCN)C(=O)c2ccc(C(F)(F)F)cc2)n1`, the inhibition (filed as antagonist) came out at 44.2%. Take `CCOC(=O)c1csc(N(CCN)Cc2cccc(F)c2F)n1`: the inhibition came to 14.7%. The same measure, in the same setting: the figure for `CCOC(=O)c1csc(N(CCN)Cc2cccc([N+](=O)[O-])c2)n1` is 22.1%. As to `CCOC(=O)c1csc(N(CCN)Cc2cccc(OC(F)F)c2)n1`, the inhibition (filed as antagonist) is 40.9%. In the case of `CCOC(=O)c1csc(N(CCN)Cc2c(F)c(F)c(F)c(F)c2F)n1`, the inhibition turned out to be 29.2%.

Regarding `CCN(CC)CCNC(=O)c1csc(N(CCN)Cc2ccc3ccccc3c2)n1`, under “filed as antagonist”, the inhibition was determined as 53.3%. On the same count and under the same terms, the figure for `CCN(CC)CCNC(=O)c1csc(N(CCN)Cc2cccc(C(F)(F)F)c2)n1` is 50.6%. As for `CCOC(=O)c1csc(N(CCNS(C)(=O)=O)Cc2ccc3ccccc3c2)n1`, the inhibition was found to be 32.4%. For the compound `CCOC(=O)c1csc(N(CCN)Cc2cccc(C(F)(F)F)c2)n1`, for the setting “filed as antagonist”, the inhibition came to 92.2%.

In the case of `CCOC(=O)c1csc(N(CCN)Cc2ccc3ccccc3c2)n1`, under “filed as antagonist”, the inhibition was determined as 97.9%. As to `CCOC(=O)c1csc(N(CCN)Cc2ccccc2)n1`, the inhibition is 30.5%.

For `NCCN(Cc1cccc(C(F)(F)F)c1)c1nc(C(=O)NCCc2ccccc2)cs1`, for the setting “filed as antagonist”, the inhibition was 81.9%.

For `CCOC(=O)c1csc(N(CCN)C(=O)c2ccc([N+](=O)[O-])cc2)n1`, the inhibition was determined as 23%. On to `CCOC(=O)c1csc(N(CCN)Cc2ccc([N+](=O)[O-])cc2)n1`, for which the inhibition amounted to 28.3%.

A word on the inhibition: it is the drop in the measured response relative to a control, in per cent.
